Experimental data reported in patent US10294227B2, “Compounds” (UNIVERSITY COURT OF THE UNIVERSITY OF EDINBURGH, priority 2015, dated 2019).
Where two headings read alike, the source gives them in different places.

How the values were obtained:
KIT = KIT (Homo sapiens (Human), UniProt P10721); assay: Kinase screening assay (IC50)
ABL = ABL (Homo sapiens (Human), UniProt P00519); assay: Kinase screening assay (IC50); type: biochemical
YES = YES (Homo sapiens (Human), UniProt P07947); assay: Kinase screening assay (IC50)
LYN = LYN (Homo sapiens (Human), UniProt P07948); assay: Kinase screening assay (IC50)
HCK = HCK (Homo sapiens (Human), UniProt P08631); assay: Kinase screening assay (IC50)
PDGFRa = PDGFRa (Homo sapiens (Human), UniProt P16234); assay: Kinase screening assay (IC50); type: biochemical
BLK = BLK (Homo sapiens (Human), UniProt P51451); assay: Kinase screening assay (IC50)
RET = RET (Homo sapiens (Human), UniProt P07949); assay: Kinase screening assay (IC50)
SRC = SRC (Homo sapiens (Human), UniProt P12931); assay: Kinase screening assay (IC50); type: biochemical; details: for IC50: 10 μM ATP, read-out: Target inhibition (IC50) SRC
LCK = LCK (Homo sapiens (Human), UniProt P06239); assay: Kinase screening assay (IC50)
mTOR = mTOR (Homo sapiens (Human), UniProt P42345); assay: Kinase screening assay (IC50); type: biochemical
FGR = FGR (Homo sapiens (Human), UniProt P09769); assay: Kinase screening assay (IC50)
FRK/PTK5 = FRK/PTK5 (Homo sapiens (Human), UniProt P42685); assay: Kinase screening assay (IC50)
FYN = FYN (Homo sapiens (Human), UniProt P06241); assay: Kinase screening assay (IC50)
[1] = Stability in human plasma; type: in vitro ADME; details: % of unmodified drug after 120 min in plasma
Stability in rat plasma = details: % of unmodified drug after 120 min in plasma
hERG channel = hERG channel (Homo sapiens (Human), UniProt Q12809); assay: hERG Safety Assay, Ionworks high-throughput electrophysiology
[2] = Stability in mouse plasma; type: in vitro ADME; details: % of unmodified drug after 120 min in plasma
[3] = human, serum
CYP3A4 = CYP3A4 (Homo sapiens (Human), UniProt P08684); assay: CYP P450 inhibition
CYP2C9 = CYP2C9 (Homo sapiens (Human), UniProt P11712); assay: CYP P450 inhibition
CYP1A2 = CYP1A2 (Homo sapiens (Human), UniProt P05177); assay: in vitro
CYP2C19 = CYP2C19 (Homo sapiens (Human), UniProt P33261); assay: CYP P450 inhibition
CYP2D6 = CYP2D6 (Homo sapiens (Human), UniProt P10635); assay: CYP P450 inhibition
[4] = Liver microsome stability; type: in vitro ADME; details: % of unmodified drug after 30 min incubation with liver microsomes
[5] = rat, serum
MCF7 cells = assay: Cell viability assay (PrestoBlue); type: cell-based; details: Homo sapiens, MCF7, 120 h; cell viability at day 5; read-out: Antiproliferative activity (EC50) MCF7
MDA-MB-231 cells = assay: Cell viability assay (PrestoBlue); type: cell-based; details: Homo sapiens, MDA-MB-231, 120 h, read-out: Antiproliferative activity (EC50) MDA-MB-231; cell viability at day 5
[6] = test system: SYF fibroblasts (deficient for Src, Yes, and Fyn); assay: Cell viability assay (PrestoBlue); type: cell-based, murine; details: Mus musculus, Fibroblast, 120 h; cell viability at day 5; read-out: Antiproliferative activity (EC50) SYF (−/− Src)
[7] = PBS, aqueous buffer
[8] = read-out: Target inhibition (IC50) KIT, 10 μM ATP
[9] = 10 μM ATP, read-out: Target inhibition (IC50) ABL
[10] = read-out: Target inhibition (IC50) YES, 10 μM ATP
[11] = read-out: Target inhibition (IC50) LYN, 10 μM ATP
[12] = read-out: Target inhibition (IC50) HCK, 10 μM ATP
[13] = 10 μM ATP, read-out: Target inhibition (IC50) PDGFRa
[14] = read-out: Target inhibition (IC50) BLK, 10 μM ATP
[15] = read-out: Target inhibition (IC50) RET, 10 μM ATP
[16] = read-out: Target inhibition (IC50) LCK, 10 μM ATP
[17] = 10 μM ATP, read-out: Target inhibition (IC50) mTOR
[18] = read-out: Target inhibition (IC50) FGR, 10 μM ATP
[19] = read-out: Target inhibition (IC50) FRK/PTK5, 10 μM ATP
[20] = read-out: Target inhibition (IC50) FYN, 10 μM ATP
[21] = read-out: Kinase Screening (IC50) c-KIT
[22] = read-out: Kinase Screening (IC50) LYN, Src Family
[23] = read-out: Kinase Screening (IC50) PDGFRa
[24] = read-out: Kinase Screening (IC50) RET
[25] = read-out: Kinase Screening (IC50) LCK, Src Family
[26] = read-out: Kinase Screening (IC50) mTOR
[27] = read-out: Kinase Screening (IC50) FGR, Src Family
[28] = read-out: Kinase Screening (IC50) FYN, Src Family
[29] = read-out: Kinase Screening (IC50) HCK, Src Family
[30] = read-out: Kinase Screening (IC50) BLK, Src Family
[31] = read-out: Kinase Screening (IC50) FRK, Src Family

Sequence of YES (P07947 whole entry): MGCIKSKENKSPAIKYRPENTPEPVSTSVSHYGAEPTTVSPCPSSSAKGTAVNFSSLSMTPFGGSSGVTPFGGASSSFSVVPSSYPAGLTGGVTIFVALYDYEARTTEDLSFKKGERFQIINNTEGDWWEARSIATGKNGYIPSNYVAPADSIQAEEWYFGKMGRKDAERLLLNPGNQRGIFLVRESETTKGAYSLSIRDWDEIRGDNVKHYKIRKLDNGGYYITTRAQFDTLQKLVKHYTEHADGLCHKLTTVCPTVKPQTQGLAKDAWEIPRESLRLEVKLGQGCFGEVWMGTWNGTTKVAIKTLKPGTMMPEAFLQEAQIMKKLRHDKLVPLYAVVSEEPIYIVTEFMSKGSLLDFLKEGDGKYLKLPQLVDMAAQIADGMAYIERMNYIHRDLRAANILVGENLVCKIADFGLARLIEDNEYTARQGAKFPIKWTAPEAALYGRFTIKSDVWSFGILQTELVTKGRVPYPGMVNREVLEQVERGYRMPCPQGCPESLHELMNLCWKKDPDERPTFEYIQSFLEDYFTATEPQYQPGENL
Sequence of FRK/PTK5 (P42685 whole entry): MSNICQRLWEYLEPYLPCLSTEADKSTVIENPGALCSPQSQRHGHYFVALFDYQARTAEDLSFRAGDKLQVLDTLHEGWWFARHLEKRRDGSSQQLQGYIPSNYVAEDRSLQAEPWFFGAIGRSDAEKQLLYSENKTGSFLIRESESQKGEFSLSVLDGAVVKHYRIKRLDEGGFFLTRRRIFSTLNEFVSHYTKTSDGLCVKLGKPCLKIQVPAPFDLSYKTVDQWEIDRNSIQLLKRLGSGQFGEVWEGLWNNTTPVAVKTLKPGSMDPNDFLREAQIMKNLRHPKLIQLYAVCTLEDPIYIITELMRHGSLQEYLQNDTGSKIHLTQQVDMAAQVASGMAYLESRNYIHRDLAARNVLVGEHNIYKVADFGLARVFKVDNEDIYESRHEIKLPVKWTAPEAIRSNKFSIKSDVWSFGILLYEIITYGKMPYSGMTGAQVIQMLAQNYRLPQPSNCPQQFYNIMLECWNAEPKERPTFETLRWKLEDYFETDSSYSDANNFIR
Sequence of HCK (P08631 whole entry): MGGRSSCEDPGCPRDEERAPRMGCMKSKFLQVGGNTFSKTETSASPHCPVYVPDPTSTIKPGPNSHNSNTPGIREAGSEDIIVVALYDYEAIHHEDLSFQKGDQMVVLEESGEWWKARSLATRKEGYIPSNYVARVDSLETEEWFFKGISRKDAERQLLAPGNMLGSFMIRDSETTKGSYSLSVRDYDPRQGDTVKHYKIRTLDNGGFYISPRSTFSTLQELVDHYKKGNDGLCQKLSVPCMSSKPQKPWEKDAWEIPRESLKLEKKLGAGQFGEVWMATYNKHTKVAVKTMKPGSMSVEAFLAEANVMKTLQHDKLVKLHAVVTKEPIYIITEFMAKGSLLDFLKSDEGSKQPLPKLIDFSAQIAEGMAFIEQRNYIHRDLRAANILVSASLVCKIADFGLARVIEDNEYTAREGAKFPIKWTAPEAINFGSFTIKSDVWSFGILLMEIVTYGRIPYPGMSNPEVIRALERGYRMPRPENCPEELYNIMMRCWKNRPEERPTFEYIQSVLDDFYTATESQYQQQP
Sequence of BLK (P51451 whole entry): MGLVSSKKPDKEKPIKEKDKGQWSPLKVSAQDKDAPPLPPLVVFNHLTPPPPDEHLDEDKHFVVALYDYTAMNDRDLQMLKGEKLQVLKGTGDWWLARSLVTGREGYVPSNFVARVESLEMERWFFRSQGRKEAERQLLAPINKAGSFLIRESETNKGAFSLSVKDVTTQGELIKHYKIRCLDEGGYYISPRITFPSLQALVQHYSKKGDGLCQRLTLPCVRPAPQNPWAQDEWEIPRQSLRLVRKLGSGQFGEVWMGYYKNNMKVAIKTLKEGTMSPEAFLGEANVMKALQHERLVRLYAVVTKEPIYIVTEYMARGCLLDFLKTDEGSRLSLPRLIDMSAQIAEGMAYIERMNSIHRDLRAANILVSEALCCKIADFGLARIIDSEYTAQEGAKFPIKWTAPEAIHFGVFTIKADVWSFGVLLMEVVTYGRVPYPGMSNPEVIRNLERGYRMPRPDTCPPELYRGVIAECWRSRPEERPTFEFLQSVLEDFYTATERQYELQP
Sequence of ABL (P00519 whole entry): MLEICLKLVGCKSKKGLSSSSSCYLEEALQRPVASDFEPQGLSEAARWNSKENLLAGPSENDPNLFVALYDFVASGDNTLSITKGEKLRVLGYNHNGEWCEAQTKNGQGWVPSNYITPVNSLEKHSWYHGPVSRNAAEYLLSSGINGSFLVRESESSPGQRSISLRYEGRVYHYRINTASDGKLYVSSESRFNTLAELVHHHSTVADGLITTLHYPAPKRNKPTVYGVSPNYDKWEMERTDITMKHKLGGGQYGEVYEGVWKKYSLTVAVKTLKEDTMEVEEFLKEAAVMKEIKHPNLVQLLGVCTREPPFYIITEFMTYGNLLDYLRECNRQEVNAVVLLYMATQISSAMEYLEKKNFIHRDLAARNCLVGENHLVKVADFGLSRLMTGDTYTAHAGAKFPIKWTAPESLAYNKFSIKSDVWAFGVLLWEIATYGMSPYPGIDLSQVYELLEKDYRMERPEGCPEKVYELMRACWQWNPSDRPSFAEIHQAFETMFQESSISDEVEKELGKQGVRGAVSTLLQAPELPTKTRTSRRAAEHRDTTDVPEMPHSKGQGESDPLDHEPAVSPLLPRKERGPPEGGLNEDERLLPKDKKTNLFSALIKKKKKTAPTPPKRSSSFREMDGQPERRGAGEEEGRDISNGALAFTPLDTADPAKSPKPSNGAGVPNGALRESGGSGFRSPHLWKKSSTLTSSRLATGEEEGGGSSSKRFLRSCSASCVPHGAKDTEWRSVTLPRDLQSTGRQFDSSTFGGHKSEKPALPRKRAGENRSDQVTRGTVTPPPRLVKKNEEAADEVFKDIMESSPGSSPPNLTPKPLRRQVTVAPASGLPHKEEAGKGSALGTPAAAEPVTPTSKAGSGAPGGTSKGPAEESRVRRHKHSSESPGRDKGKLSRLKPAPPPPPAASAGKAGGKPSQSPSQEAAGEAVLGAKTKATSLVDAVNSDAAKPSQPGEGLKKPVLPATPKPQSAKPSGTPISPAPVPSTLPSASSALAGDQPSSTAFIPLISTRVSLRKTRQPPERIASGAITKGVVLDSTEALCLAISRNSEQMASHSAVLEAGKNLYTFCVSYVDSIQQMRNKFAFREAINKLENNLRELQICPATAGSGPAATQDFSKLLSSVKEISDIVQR
Sequence of KIT (P10721 26-976): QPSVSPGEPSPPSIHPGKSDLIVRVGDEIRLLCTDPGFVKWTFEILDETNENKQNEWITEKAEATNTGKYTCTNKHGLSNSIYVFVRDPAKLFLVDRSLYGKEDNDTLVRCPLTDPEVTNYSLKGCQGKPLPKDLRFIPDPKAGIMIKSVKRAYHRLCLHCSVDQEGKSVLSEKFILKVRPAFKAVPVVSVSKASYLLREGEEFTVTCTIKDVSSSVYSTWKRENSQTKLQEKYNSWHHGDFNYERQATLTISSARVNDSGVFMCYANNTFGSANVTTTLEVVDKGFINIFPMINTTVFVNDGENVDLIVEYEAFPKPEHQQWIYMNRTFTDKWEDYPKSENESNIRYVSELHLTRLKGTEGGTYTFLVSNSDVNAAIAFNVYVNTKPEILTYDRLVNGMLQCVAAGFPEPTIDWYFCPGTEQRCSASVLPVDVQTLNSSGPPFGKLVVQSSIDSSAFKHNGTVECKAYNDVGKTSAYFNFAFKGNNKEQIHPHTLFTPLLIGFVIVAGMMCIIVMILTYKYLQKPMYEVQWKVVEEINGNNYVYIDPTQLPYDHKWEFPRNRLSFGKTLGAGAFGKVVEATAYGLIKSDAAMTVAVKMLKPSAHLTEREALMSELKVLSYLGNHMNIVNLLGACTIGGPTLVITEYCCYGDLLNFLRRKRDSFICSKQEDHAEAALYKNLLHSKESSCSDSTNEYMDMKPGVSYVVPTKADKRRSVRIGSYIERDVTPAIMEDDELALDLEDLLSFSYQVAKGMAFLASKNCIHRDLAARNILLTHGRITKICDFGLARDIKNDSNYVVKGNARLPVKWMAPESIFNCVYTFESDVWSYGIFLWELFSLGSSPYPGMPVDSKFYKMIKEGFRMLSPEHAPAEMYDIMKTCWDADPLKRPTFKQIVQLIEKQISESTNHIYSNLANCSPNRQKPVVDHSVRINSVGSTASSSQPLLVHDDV
Sequence of FYN (P06241 whole entry): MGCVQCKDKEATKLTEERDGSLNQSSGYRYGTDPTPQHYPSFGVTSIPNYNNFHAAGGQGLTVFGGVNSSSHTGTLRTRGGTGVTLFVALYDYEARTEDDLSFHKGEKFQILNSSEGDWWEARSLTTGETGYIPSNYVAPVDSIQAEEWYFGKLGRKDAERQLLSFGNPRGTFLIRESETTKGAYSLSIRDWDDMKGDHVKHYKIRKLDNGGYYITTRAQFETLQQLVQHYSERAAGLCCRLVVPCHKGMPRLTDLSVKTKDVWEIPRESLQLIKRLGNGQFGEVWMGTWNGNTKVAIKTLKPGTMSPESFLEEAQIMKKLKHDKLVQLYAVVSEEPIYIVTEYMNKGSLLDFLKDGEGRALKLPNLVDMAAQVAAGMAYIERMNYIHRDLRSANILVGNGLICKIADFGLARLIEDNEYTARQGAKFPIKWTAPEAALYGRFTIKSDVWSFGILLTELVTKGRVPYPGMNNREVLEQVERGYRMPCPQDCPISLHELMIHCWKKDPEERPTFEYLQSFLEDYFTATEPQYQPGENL

SMILES	IC50 (KIT; [8]) [nM]	IC50 (ABL; [9]) [nM]	IC50 (YES; [10]) [nM]	IC50 (LYN; [11]) [nM]	IC50 (HCK; [12]) [nM]	IC50 (PDGFRa; [13]) [nM]	IC50 (BLK; [14]) [nM]	IC50 (RET; [15]) [nM]	IC50 (SRC) [nM]	IC50 (LCK; [16]) [nM]	IC50 (mTOR; [17]) [nM]	IC50 (FGR; [18]) [nM]	IC50 (FRK/PTK5; [19]) [nM]	IC50 (FYN) [nM]	IC50 (FYN; [20]) [nM]	IC50 (KIT; [21]) [nM]	IC50 (LYN; [22]) [nM]	IC50 (PDGFRa; [23]) [nM]	IC50 (RET; [24]) [nM]	IC50 (LCK; [25]) [nM]	other results
COc1cc(-c2nn(CCN3CCC(CN(C)C)CC3)c3ncnc(N)c23)ccc1NC(=O)OC(C)(C)C [Compound 503, tert-butyl N-[4-[4-amino-1-[2-[4-(dimethylaminomethyl)-1-piperidyl]ethyl]pyrazolo[3,4-d]pyrimidin-3-yl]-2-methoxy-phenyl]carbamate]	> 1000	100 to 1000	< 10	< 10	< 10	> 1000	< 10	> 1000	< 10	< 10	> 1000	< 10	< 10	4.6	< 10	–	–	–	–	–	IC50 (KIT): 7130 nM; IC50 (ABL; recombinant kinase, read-out: IC50 Abl): 189 nM; IC50 (YES): < 0.5 nM; potency (IC50) against Yes, in words (YES): sub-nano molar; IC50 (PDGFRa; recombinant kinase, read-out: IC50 PDGFRα): > 10000 nM; IC50 (RET): > 10000 nM; potency (IC50) against Src, in words (SRC): sub-nano molar; IC50 (mTOR; recombinant kinase, read-out: IC50 mTOR): > 10000 nM
CN(C)C1CCN(CCn2nc(-c3ccc(CC(=O)OC(C)(C)C)cc3)c3c(N)ncnc32)CC1 [Compound 553, tert-butyl 2-[4-[4-amino-1-[2-[4-(dimethylamino)-1-piperidyl]ethyl]pyrazolo[3,4-d]pyrimidin-3-yl]phenyl]acetate]	> 1000	–	–	< 10	–	> 1000	–	> 1000	–	< 10	> 1000	< 10	–	–	< 10	> 1000	< 10	> 1000	> 1000	< 10	Stability in human plasma [1]: 98.3%; Stability in rat plasma (Stability in rat plasma): 68.2%; IC50 (hERG channel): 12600 nM; IC50 (mTOR; [26]): > 1000 nM; IC50 (FGR; [27]): < 10 nM; Stability in mouse plasma [2]: 70.4%; IC50 (FYN; [28]): < 10 nM
COc1cc(-c2nn(CCN3CCC(N4CCCC4)CC3)c3ncnc(N)c23)ccc1NC(=O)OC(C)(C)C [Compound 518, tert-butyl N-[4-[4-amino-1-[2-(4-pyrrolidin-1-yl-1-piperidyl)ethyl]pyrazolo[3,4-d]pyrimidin-3-yl]-2-methoxy-phenyl]carbamate]	> 1000	–	< 10	< 10	< 10	> 1000	< 10	> 1000	–	< 10	> 1000	< 10	< 10	–	< 10	> 1000	< 10	> 1000	> 1000	< 10	IC50 (YES; read-out: Kinase Screening (IC50) YES, Src Family): < 10 nM; fraction unbound [3]: 0.172; IC50 (HCK; [29]): < 10 nM; inhibition at 10 µM (CYP3A4): -29.8%; inhibition at 10 µM (CYP2C9): -92.3%; IC50 (BLK; [30]): < 10 nM; inhibition at 10 µM (CYP1A2): 6.9%; IC50 (hERG channel): 20100 nM; inhibition at 10 µM (CYP2C19): -6.5%; IC50 (mTOR; [26]): > 1000 nM; IC50 (FGR; [27]): < 10 nM; IC50 (FRK/PTK5; [31]): < 10 nM; IC50 (FYN; [28]): < 10 nM; inhibition at 10 µM (CYP2D6): 6.7%; 30 min Liver Microsome stability [4]: 87.0%; fraction unbound [5]: 0.134
COc1cc(-c2nn(CCN3CCC(N(C)C)CC3)c3ncnc(N)c23)ccc1Cc1ncc(C)o1 [Compound 584, 1-[2-[4-(dimethylamino)-1-piperidyl]ethyl]-3-[3-methoxy-4-[(5-methyloxazol-2-yl)methyl]phenyl]pyrazolo[3,4-d]pyrimidin-4-amine]	> 1000	> 1000	< 10	–	–	> 1000	–	> 1000	10 to 100	< 10	> 1000	< 10	–	100 to 1000	–	–	–	–	–	–	–
CC1CC(OC(=O)C(O)c2ccccc2)CC(C)(C)N1C (centres unmarked) [Eucatropine, reference compound]	–	–	–	–	–	–	–	–	–	–	–	–	–	–	–	–	–	–	–	–	Stability in human plasma [1]: 10.5%; Stability in mouse plasma [2]: 20.3%
CN(C)C1CCN(CCn2nc(-c3ccc(NC(=O)OC(C)(C)C)cc3)c3c(N)ncnc32)CC1 [Compound 543]	> 1000	> 1000	< 10	–	–	> 1000	–	> 1000	10 to 100	–	> 1000	< 10	–	100 to 1000	–	–	–	–	–	–	IC50 (LCK): 10 to 100 nM
COc1cc(-c2nn(CCN3CCC(N4CCCCC4)CC3)c3ncnc(N)c23)ccc1NC(=O)OC(C)(C)C [Compound 519, tert-butyl N-[4-[4-amino-1-[2-[4-(1-piperidyl)-1-piperidyl]ethyl]pyrazolo[3,4-d]pyrimidin-3-yl]-2-methoxy-phenyl]carbamate]	> 1000	–	–	< 10	< 10	> 1000	< 10	> 1000	–	< 10	> 1000	< 10	< 10	–	< 10	> 1000	< 10	> 1000	> 1000	< 10	fraction unbound [3]: 0.143; IC50 (HCK; [29]): < 10 nM; inhibition at 10 µM (CYP3A4): -12.1%; inhibition at 10 µM (CYP2C9): -70.3%; IC50 (BLK; [30]): < 10 nM; inhibition at 10 µM (CYP1A2): -1.6%; IC50 (hERG channel): 12600 nM; inhibition at 10 µM (CYP2C19): -3.1%; IC50 (mTOR; [26]): > 1000 nM; IC50 (FGR; [27]): < 10 nM; IC50 (FRK/PTK5; [31]): < 10 nM; IC50 (FYN; [28]): < 10 nM; inhibition at 10 µM (CYP2D6): 3%; fraction unbound [5]: 0.106
COc1cc(-c2nn(CCN3CCC(N(C)C)CC3)c3ncnc(N)c23)ccc1NC(=O)Cc1ccccc1 [Compound 530, N-[4-[4-amino-1-[2-[4-(dimethylamino)-1-piperidyl]ethyl]pyrazolo[3,4-d]pyrimidin-3-yl]-2-methoxy-phenyl]-2-phenyl-acetamide]	–	–	–	–	–	–	–	–	–	–	–	–	–	–	–	–	–	–	–	–	EC50 (MCF7 cells): > 10000 nM; EC50 (MDA-MB-231 cells): > 10000 nM; EC50 [6]: > 10000 nM
Cc1nc(Nc2ncc(C(=O)Nc3c(C)cccc3Cl)s2)cc(N2CCN(CCO)CC2)n1 [Dasatinib, reference compound]	–	–	–	–	–	–	–	–	–	–	–	–	–	–	–	–	–	–	–	–	fraction unbound [3]: 0.06; solubility [7]: < 100 µg/mL
COc1ccc([C@@H]2Sc3ccccc3N(CCN(C)C)C(=O)[C@@H]2OC(C)=O)cc1 [Diltiazem, reference compound]	–	–	–	–	–	–	–	–	–	–	–	–	–	–	–	–	–	–	–	–	Stability in rat plasma (Stability in rat plasma): 21.5%
